One series deals with T1, CYP2B6 (Homo sapiens, UniProt P20813).
T1 sequence (P20813 1-491): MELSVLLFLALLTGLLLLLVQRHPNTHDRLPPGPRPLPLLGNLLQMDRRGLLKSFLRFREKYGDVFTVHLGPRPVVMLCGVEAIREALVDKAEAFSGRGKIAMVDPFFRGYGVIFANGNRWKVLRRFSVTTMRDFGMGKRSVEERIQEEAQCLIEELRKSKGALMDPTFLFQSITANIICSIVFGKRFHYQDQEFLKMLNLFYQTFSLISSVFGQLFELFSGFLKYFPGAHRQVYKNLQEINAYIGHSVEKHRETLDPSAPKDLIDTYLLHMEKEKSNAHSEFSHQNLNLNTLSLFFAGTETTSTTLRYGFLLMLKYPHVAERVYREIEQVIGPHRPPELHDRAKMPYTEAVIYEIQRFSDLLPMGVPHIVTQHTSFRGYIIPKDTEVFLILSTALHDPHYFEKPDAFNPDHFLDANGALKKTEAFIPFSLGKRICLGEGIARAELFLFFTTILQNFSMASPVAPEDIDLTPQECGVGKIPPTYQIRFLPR
Nature of the series: CYP450 isoform enzymatic inhibition, 2B6. In kind it is in vitro ADME. Conditions: pH 7.4, read-out: CYP inhibiton/% 2B6.

A further series addresses T2, Wee1 protein (Homo sapiens, UniProt P30291).
T2 construct: purchased Thermo Fisher PR7373A
Nature of the series: Binding of compound to Wee1 protein and Tracer 178 by TR-FRET (Wee1 kinase inhibitory activity). Conditions: 15 nM WEE1, 50 nM Tracer 178, read-out: IC50 (inhibitory activity against Wee1 kinase). In general terms: Time-resolved FRET reads energy transfer from a long-lived donor to a nearby acceptor.

The subject of another series is MIA PaCa2 cells. Kind of series: Anti-proliferative effect on MIA PaCa2 cells by Cell Titer-Glo. Conditions: Homo sapiens, MIA PaCa-2, 72 h, 3 days, read-out: MIA PaCa 2 (IC50, inhibition of proliferation in vitro). In kind it is cell-based. The method in brief: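 Cells exposed to graded compound concentrations for 3 days at 37° C, 5% CO2, final DMSO 0.2%; viability read by CellTiter-Glo luminescence. Inhibition normalised to untreated cells (max) and medium (min); IC50 fitted by variable-slope log(inhibitor)-response model.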

Series [1] is described as follows: Liver microsomes in vitro stability (human). Conditions: read-out: T1/2/min (H). In kind it is in vitro ADME. The protocol: (§1) 1. Preparation of Working Solution:
(§2) Microsomes were taken out from the −80° C. refrigerator, rapidly melted in a 37° C. water bath and placed on ice until ready to use. The test article was diluted with DMSO to prepare a 10 mM stock solution, and then diluted with acetonitrile to a 0.5 mM secondary stock solution. […] NADPH was diluted with Buffer C to a working solution of 6 mM for the starter solution. An acetonitrile solution containing an internal standard was prepared as the precipitant, and Verapamil-HCl was chosen as the internal standard at a concentration of 4 ng/ml.
(§3) 2. Experimental Procedure:
(§4) A round-bottom well plate was taken, noted as the reaction plate, and the prepared working solution for each compound was dispensed into the well plate according to the number of replicates and time points (0 h samples were also added to the reaction plate), 30 μL/well; the plate was incubated at 37° C. for 10 min. A separate plate with pointed bottom wells, noted as a precipitation plate, was added with 135 μL precipitant per well; 0 h samples were transferred to the plate after 10 min incubation and 15 μL of starter solution was added; the plate was placed on ice before centrifugation.
(§5) The diluted starter solution was added in sufficient quantity to the dispensing plate to facilitate the multichannel pipette aspiration operation.
(§6) The reaction was carried out on a warm incubation shaker and 15 μL of starter solution/sample is added to the plate using a multichannel pipette. The reaction was mixed with a slight shake to initiate the reaction, which was accurately timed and recorded using a timer. In general, samples with shorter reaction times are initiated late and vice versa early, allowing sufficient time for multiple plate manipulation to terminate the reaction. For example, as for the four experiments of 5, 15, 30, and 60 min, the 60 min experiment was started first, and the 5 min experiment was started later, so as to leave sufficient time for the 5 min group.
(§7) After the reaction time had elapsed, all the solution in the plate was aspirated using the multichannel pipette and added to the precipitation plate to terminate the reaction at that point in time. After all reactions had been terminated, the plates were shaken for ten minutes on a plate shaker at 600 rpm to precipitate the protein. The plate was centrifuged at 4° C. for 15 minutes at maximum rpm. 80 μL of supernatant was taken, 320 μL of pure water was added and mixed for LC-MS analysis.
On the technique in general: Liver microsomes are vesicles of endoplasmic reticulum, rich in cytochrome P450 enzymes.

A further series relates to H1299 cells. Nature of the series: Anti-proliferative effect on H1299 cells by Cell Titer-Glo. It counts as cell-based. Conditions: 3 days. The method in brief:
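H1299 cells exposed to compound dilutions for 3 days at 37 °C, 5% CO2, final DMSO 0.2%. Viability read by CellTiter-Glo luminescence, normalised to untreated-cell (max) and medium (min) controls. IC50 from a variable-slope log(inhibitor) vs. response fit.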

The nature of series [2]: Liver microsomes in vitro stability (mouse). In kind it is in vitro ADME. Conditions: read-out: T1/2/min. The protocol: as §1, §2, §3, §4, §5, §6, §7
Series [3] in a line: Plasma protein binding (PPB), equilibrium dialysis. It counts as in vitro ADME. Conditions: mouse plasma, 5 h dialysis. An excerpt: 1. Experimental Procedure
2. Data Processing and Parameter Calculation
A general note: Equilibrium dialysis compares concentrations on both sides of a semipermeable membrane.

The nature of series [4]: Membrane permeability study (Caco-2). Conditions: human. In kind it is in vitro ADME. The method, then:
Caco-2 cells were purchased from the […] (Rockville, MD). The cell culture medium was modified Eagle's medium (MEM) containing 10% inactivated fetal bovine serum and 1% non-essential amino acids.
The cells were incubated for 21-28 days after inoculation for transport experiments and the apparent permeability (Papp) of Lucifer Yellow was used to characterize and verify the compactness of the cell monolayer. […] A 10 μM working solution of the compound to be tested was added to the apical side and basolateral side of Caco-2 and incubated at 37° C. for 90 min. After the incubation, dilute the samples on the apical side and basolateral side, and the concentrations of compounds on the apical and basolateral sides were detected by LC-MS/MS, and the concentrations of the compounds were quantified by standard curve.

A short description of series [5]: Pharmacokinetics on single dose in mice (intravenous and oral). In kind it is in vivo, ICR mice. Conditions: male, ICR, mouse, plasma, Oral, 10 mg/kg. The method, then: 1. Experimental Aim: The present experiment aimed to obtain the pharmacokinetic profile of the subject compounds in ICR mice (both intravenous and oral) 3.1.2 Test System Species: SPF grade male ICR mice Body weight/weekly age: about 30 g 4. […] 4.2 Subjects Given (Route) Intravenous: 1 mg/kg in a volume of 5 mL/kg Gavage: 10 mg/kg in a volume of 10 mL/kg Ultrasound for 5 min before administration 4.3 Subject Preparation (Concentration) Intravenous: 0.2 mg/mL Gavage: 1 mg/mL Fast overnight before administration and feed four hours after administration. […] The blood samples were stored in a refrigerator at or below −20° C. for LC-MS/MS analysis. […] LC-MS/MS Analytical Detection Used 5. Data Processing The samples were detected for drug concentration at each time point by LC-MS/MS. Pharmacokinetic parameters terminal elimination half-life (t1/2), area under the curve (AUC), apparent volume of distribution (Vd), clearance (CL), mean residence time (MRT), and Cmax were calculated using the non-compartmental model of Phoenix WinNonlin 5.2. Bioavailability (F %) was directly from serum concentration results. Mean±standard deviation (X±SD) was used for blood concentration and pharmacokinetic parameters, etc. Specific testing and analytical methods were specified in the form of protocol revisions.

Setting [6] is: Homo sapiens, NCI-H1299, 72 h, read-out: H1299 (IC50, inhibition of proliferation in vitro).

Read-outs that look alike come from different tables or passages of the source.

T2 sequence (P30291 whole entry): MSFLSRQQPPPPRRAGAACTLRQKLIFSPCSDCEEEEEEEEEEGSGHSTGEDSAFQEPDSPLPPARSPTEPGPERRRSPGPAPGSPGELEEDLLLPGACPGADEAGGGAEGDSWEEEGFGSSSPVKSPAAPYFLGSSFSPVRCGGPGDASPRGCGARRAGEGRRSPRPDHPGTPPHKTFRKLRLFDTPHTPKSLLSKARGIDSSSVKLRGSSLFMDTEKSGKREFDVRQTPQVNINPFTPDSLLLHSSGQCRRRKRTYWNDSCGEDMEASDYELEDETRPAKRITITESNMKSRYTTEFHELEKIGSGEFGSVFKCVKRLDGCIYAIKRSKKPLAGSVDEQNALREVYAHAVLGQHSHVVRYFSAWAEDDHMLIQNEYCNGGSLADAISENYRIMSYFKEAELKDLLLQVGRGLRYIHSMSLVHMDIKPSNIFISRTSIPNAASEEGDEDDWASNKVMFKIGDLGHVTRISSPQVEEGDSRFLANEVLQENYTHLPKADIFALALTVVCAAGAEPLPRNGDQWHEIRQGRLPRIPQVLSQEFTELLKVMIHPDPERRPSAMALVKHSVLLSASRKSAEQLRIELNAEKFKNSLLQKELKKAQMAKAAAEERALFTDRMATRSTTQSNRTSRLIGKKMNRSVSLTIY
Experimental for CYP2B6: Enzymatic experiments were performed to quantify the inhibition of CYP450 enzyme activity of each isoform of CYP450 by small molecule inhibitors through fluorescence generated by the oxidation of the The substrate by cytochrome P450. […] The Solution B composition used for the experiment was: 40 U/mL G6PDH (Sigma-aldrich, Cat #G6378). The The substrate mix was 0.05×Solution A, 0.01×Solution B, 50 mM Potassium Phosphate, 0.01 mM BOMCC/0.01 mM EOMCC/0.001 mM DBOMF.

As for `C=CCn1c(=O)c2cnc(Nc3ccc(N4C[C@@H]5C[C@H]4CN5C)cc3)nc2n1-c1cccc(C(C)(C)O)n1` [Compound 3], the inhibition at 30 min, 10 µM at CYP2B6 turned out to be 1.38%.

As for `C=CCn1c(=O)c2cnc(Nc3ccc(N4CCOC5(CCCN(C)C5)C4)cc3)nc2n1-c1cccc(C(C)(C)O)n1` (stereo not drawn) [Compound 46], the IC50 on Wee1 protein is 10 to 100 nM; in the series on MIA PaCa2 cells, 100 to 1000 nM; in the series on H1299 cells (setting [6]) it was 100 to 1000 nM. Further, the results for the half-life at 1 µM in series [1] and in [2] were 16.8 min and 13.6 min, respectively. This compound also had a fraction unbound at 5 h, 1 µM in series [3] of 0.179.

`C=CCn1c(=O)c2cnc(Nc3ccc(N4CC5CC(C4)N5CCF)cc3)nc2n1-c1cccc(C(C)(C)O)n1` [Compound 48]: the efflux ratio at 90 min, 10 µM in series [4] (Caco-2, pH 7.4) is 2.65. The compound further displayed a Papp A→B at 90 min, 10 µM in series [4] (pH 7.4, Caco-2, 10 μM, 90 min, apical to basolateral) of 13.3 ×10⁻⁶ cm/s. Also, the Papp B→A at 90 min, 10 µM in series [4] (pH 7.4, Caco-2, 10 μM, 90 min, basolateral to apical) came out at 35.3 ×10⁻⁶ cm/s. Besides, the IC50 on Wee1 protein is less than 5 nM. Further, the IC50 in the series with MIA PaCa2 cells lay in the range of 100 to 1000 nM. In series [5], this compound gave an AUC(0-t) of 482 ng·h/mL, a Cmax of 470 ng/mL, an MRT of 54 min and a half-life of 38.4 min. In the series on H1299 cells (setting [6]), the IC50 lay within 100 to 1000 nM. Further, in [3], the fraction unbound at 5 h, 1 µM was 0.031.

With `C=CCn1c(=O)c2cnc(Nc3ccc(N4CC5CC(C4)N5C)cc3)nc2n1-c1ccc2ccn(CC)c2n1` [Compound 51], the IC50 at Wee1 protein is less than 5 nM. Besides, the IC50 in the series on MIA PaCa2 cells fell in the range of 100 to 1000 nM. Moreover, the half-life at 1 µM in series [1] was 19 min. In addition, in series [5], the AUC(0-t) was found to be 430 ng·h/mL, the Cmax amounted to 290 ng/mL, the MRT was found to be 70.8 min and the half-life is 57 min. In the series on H1299 cells (setting [6]), the IC50 is 100 to 1000 nM. Further, the half-life at 1 µM in [2] stood at 14.7 min. The fraction unbound at 5 h, 1 µM in series [3] is 0.03.

On to `C=CCn1c(=O)c2cnc(Nc3ccc(N4CC5CC(C4)N5C)cc3)nc2n1-c1ccc2cnn(CC)c2n1` [Compound 53], for which the IC50 on Wee1 protein was in the range of 5 to 10 nM. In the series on MIA PaCa2 cells, the IC50 lay in the range of 2000 to 5000 nM. In [5], this compound had an AUC(0-t) of 1640 ng·h/mL, a Cmax of 800 ng/mL, an MRT of 115 min and a half-life of 113 min. Also, the IC50 in the series on H1299 cells (listed as Compound53, read-out: H1299 (IC50, inhibition of proliferation in vitro)) was 100 to 1000 nM. In series [3], this compound had a fraction unbound at 5 h, 1 µM of 0.035.

As a reminder, the fraction unbound is the share of the substance not bound to proteins or other matrix. Low readings indicate extensive binding, high ones weak binding. The efflux ratio is a quotient of directional permeabilities that is used to spot active efflux. For orientation: Papp A→B means how fast a substance crosses the layer from the apical side. The term Papp B→A denotes how fast a substance crosses the layer from the basolateral side. As a reminder, the AUC(0-t) is the area under the concentration-time curve up to a stated or last time point. A high value points to high exposure. In general, Cmax refers to the highest concentration seen after dosing. A word on the MRT: it is the average time that molecules of a dose stay in the body.

These data come from patent US20250034151A1, “WEE1 INHIBITOR, PREPARATION THEREFOR, AND USE THEREOF” (JIANGSU TASLY DIYI PHARMACEUTICAL CO., LTD., priority 2022, published 2025).
